Here are results for five molecules from patent publication US20130217721A1, “COMPOSITIONS AND METHODS FOR DETECTION AND TREATMENT OF B-RAF INHIBITOR-RESISTANT MELANOMAS” (The Regents of the University of California, priority 2010, published 2013).

One test relates to M395 R. The experiment in a line: Cell survival assay (72 h). Format: cell-based, human. The following applies: M395 R (V600EB-RAF amplification-driven), 72 h. From the text: (§1) Cell culture, infections and drug treatments. Cells were maintained in DMEM with 10 or 20% fetal bovine serum and glutamine. shRNAs for B-RAF and C-RAF were sub-cloned into the lentiviral vector pLL3.7; pBabe B-RAF (V600E) was purchase (plasmid 17544, Addgene); viral supernatants generated by co-transfection with three packaging plasm ids into HEK293T cells; and infections carried out with protamine sulfate. Stocks and dilutions of PLX4032 (Plexxikon, Berkeley, Calif.) and AZD6244 (commercially available) were made in DMSO. Cells were quantified using CellTiter-GLO Luminescence (Promega) or crystal violet staining followed by NIH Image J quantification.

The subject of test [1] is M249 R sub-line (M249 R4). Kind of test: Cell survival / proliferation assay (72 h). To be noted: for growth sensitivity to MEK inhibition: M249 R4, 72 h, in the presence or absence of PLX4032. The test is classed as cell-based, human. The procedure:
(§2) Cells were maintained in Dulbecco's modified Eagle medium (DMEM) with 10 or 20% fetal bovine serum and glutamine. shRNAs were sub-cloned into the lentiviral vector pLL3.7 and infections carried out with protamine sulphate. Stocks of PLX4032 (Plexxikon) and AZD6244 (commercially available) were made in DMSO. Cells were quantified using CellTiter-GLO Luminescence (Promega).
(§3) Cell proliferation experiments were performed in a 96-well format (five replicates), and baseline quantification performed at 24 h after cell seeding along with initiation of drug treatments (72 h). Stocks and dilutions of PLX4032 (Plexxikon), AZD6244 (Selleck Chemicals) and U0126 (Promega) were made in DMSO. siRNA pool (Dharmacon) transfections were carried out in 384-well format. TransIT transfection reagent (Mirus) was added to each well and incubated at 37° C. for 20 min. Subsequently, cells were reverse transfected, and the mixture was incubated for 51-61 h at 37° C. Cells were quantified using CellTiter 96 Aqueous One Solution (Promega) or CellTiter-GLO Luminescence (Promega) following the manufacturer's recommendations.
as §1

Test [2] concerns M238 R sub-lines (M238 R1). The experiment in a line: Cell survival / proliferation assay (72 h). The test is classed as cell-based, human. To be noted: M238 R1, 72 h, PLX4032-resistant cells grown with PLX4032. As for the experimental part: as §2, §3
Test [3] concerns Pt48 R short-term culture. Kind of test: Cell survival / proliferation assay (72 h). Format: cell-based, human. The following applies: for growth sensitivity to inhibitor: 72 h, PLX4032-resistant cells grown with PLX4032. The procedure:
as §2, §3

The test system of test [4] is M229 R sub-lines (M229 R5). Kind of test: Cell survival / proliferation assay (72 h). The test is classed as cell-based, human. The following applies: M229 R5, 72 h, PLX4032-resistant cells grown with PLX4032. The procedure:
as §2, §3

In test [5] the test system is Pt55 R short-term culture. Kind of test: Cell survival / proliferation assay (72 h). The following applies: for growth sensitivity to MEK inhibition: 72 h, in the presence or absence of PLX4032. Format: cell-based, human. As for the experimental part:
as §2, §3

In test [6] the test system is SKMEL-239 PLX4032-resistant clones C1-5. Kind of test: Proliferation assay of PLX4032-resistant clones. Format: cell-based, human. The following applies: all five resistant clones, albeit at slightly higher doses. As for the experimental part:
Cell proliferation and cell cycle analysis. All melanoma cell lines were generated by A. Houghton (MSKCC) or obtained from ATCC. 293H cells were obtained from Invitrogen. Cells were maintained in DMEM (293H and MEFs), or RPMI (all other cell lines) supplemented with 2 mM glutamine, antibiotics and 10% fetal bovine serum. We confirmed by DNA fingerprinting^20 that all PLX4032-resistant, SKMEL-239 clones were derived from the same patient, thus excluding the possibility of contamination (Table 6). For proliferation assays, cells were plated in 6 well plates and 24 hours later were treated with varying concentrations of inhibitors as indicated. IC50 values were calculated using Graph Pad Prism v.5. For cell cycle and apoptosis studies, cells were seeded in 6 well dishes the day prior to drug treatment. For analysis, both adherent and floating cells were harvested and stained with ethidium bromide as described previously^21.

The target of test [7] is T1, V5-tagged p61 BRAF(V600E/R509H) (human, UniProt P15056 1-766).
T1 construct: domain: splice variant lacking exons 4-8 (554 amino acids); Co-expressed with the FLAG-tagged form in 293H cells; also called dimerization mutant p61 BRAF(V600E/R509H); not shown: V5 tag
Kind of test: co-immunoprecipitation of FLAG- and V5-tagged forms from 293H cells.

For the molecule `Cn1cnc2c(F)c(Nc3ccc(Br)cc3Cl)c(C(=O)NOCCO)cc21` [AZD6244], the “proliferation under MEKi treatment” value is on record as “decreased proliferation” with M395 R and “decreased proliferation” in test [1] (M249 R4 (Q61KN-RAS-driven), 72 h). Also, the “growth sensitivity to MEK inhibition” value in test [1] and in test [5] was “sensitive” in each case. In addition, the “growth sensitivity to inhibitor” value in test [2], in test [3] and in test [4] was “highly resistant” each time.

Regarding `O=C(NOC[C@H](O)CO)c1ccc(F)c(F)c1Nc1ccc(I)cc1F` [PD0325901], the “sensitivity to the MEK inhibitor” value in test [6] is “retained sensitivity”.

With `CCCS(=O)(=O)Nc1ccc(F)c(C(=O)c2c[nH]c3ncc(Cl)cc23)c1F` [PLX4720], the “growth resistance to B-RAF inhibitor” value in test [3] and in test [5] was “resistance” each time.

Consider `N#CC(=C(/N)Sc1ccccc1N)/C(C#N)=C(\N)Sc1ccccc1N` [U0126], for which the “growth sensitivity to MEK inhibition” value in test [1] and in test [5] was “sensitive” throughout. Also, the “growth sensitivity to inhibitor” value in test [2], in test [3] and in test [4] was “highly resistant” each time.

B1: FLAG-tagged p61 BRAF(V600E/R509H) (enzyme, human, UniProt P15056 1-766, looked up)
chain: MAALSGGGGGGAEPGQALFNGDMEPEAGAGAGAAASSAADPAIPEEVWNIKQMIKLTQEHIEALLDKFGGEHNPPSIYLEAYEEYTSKLDALQQREQQLLESLGNGTDFSVSSSASMDTVTSSSSSSLSVLPSSLSVFQNPTDVARSNPKSPQKPIVRVFLPNKQRTVDLIRDQGFRGDGGSTTGLSATPPASLPGSLTNVKALQKSPGPQRERKSSSSSEDRNRMKTLGRRDSSDDWEIPDGQITVGQRIGSGSFGTVYKGKWHGDVAVKMLNVTAPTPQQLQAFKNEVGVLRKTHHVNILLFMGYSTKPQLAIVTQWCEGSSLYHHLHIIETKFEMIKLIDIARQTAQGMDYLHAKSIIHRDLKSNNIFLHEDLTVKIGDFGLATEKSRWSGSHQFEQLSGSILWMAPEVIRMQDKNPYSFQSDVYAFGIVLYELMTGQLPYSNINNRDQIIFMVGRGYLSPDLSKVRSNCPKAMKRLMAECLKKKRDERPLFPQILASIELLARSLPKIHRSASEPSLNRAGFQTEDFSLYACASPKTPIQAGGYGAFPVH
notes: domain: splice variant lacking exons 4-8 (554 amino acids); Expressed in 293H cells; immunoprecipitated with FLAG antibody; also called dimerization-deficient mutant; not shown: FLAG tag
Take B1: the binding result in test [7] is “no binding”.
